Assay results reported in patent publication US20020022718A1, “Genes identified as required for proliferation of E. coli” (priority 1999, published 2002).
Converted amounts (≈) assume the structure as drawn. Like-named read-outs stand apart in the source and are kept apart here.

B1: EcXA134: antisense clone insert to E. coli sspA (nucleic acid, listed as Escherichia coli)
antisense: TGTTCGATCTCGAAACTTACACCTTTCTCAGCCAGCACAATGCGGACCTGATGGCTATAGATGTCAGTAGGACCGGAAAACAGCGTCATTACCCGAACGTTTGTTGGC
B2: EcXA172: antisense clone insert to E. coli b2345 (nucleic acid, listed as Escherichia coli)
antisense: AAAACTCACCTTTTTTGTTGTTATCCCTCAATTACCACAAGTAAAAGGAGATAAACCGACAATGACCTAGACGTAATTATGTAAAAATACTGATGTTCGTCACTGACTATTTCCGATATTCAGCTGTTGAAAAATCAAAAAACTGGAAAAATAATTTTAAATATCAT
B3: EcXA161: antisense clone insert to E. coli sbcD (nucleic acid, listed as Escherichia coli)
antisense: GAAACTCAGTGGAATGGGGGAGCCGCAATAGCGAACATGTTCCATGCCGCCAATAATCTGTGCGCGGTGAATATGCCCGAGCGCGATGTAGTCGGCTGGTGGAAAGTTTTGTGCCGGAAACGCGTCCAGCGTGCCAATATAAATGTCACGCACGGCGTCACTTTTACTGGCCCCCACGGTCGTTAAATGTCCCGTGGCGATGATGGGCAGAGGCTGATCGCCGCGCAGTTTGCAGGCATCGGCATAGTGT

Tests used:
[1] = tested on: Bacterial cells expressing antisense nucleic acid complementary to rplL and rplJ (50S ribosomal subunit proteins); test: microbe, parasite or virus in culture; type: cell-based, E. coli; settings: for IC50: Escherichia coli; for Fold Increase in Sensitivity: IC50 −IPTG versus +IPTG (400 μM); for Sensitivity Increased?: significant decrease in IC50 in the presence of inducer IPTG
Description: Two-fold dilution series of antibiotics with a known mechanism of action are generated in the culture media selected for further assay development that has been supplemented with the antibiotic used to maintain the construct. A panel of test antibiotics known to act on different pathways is tested side by side with three to four wells being used to evaluate the effect of a test antibiotic on cell growth at each concentration. Equal volumes of test antibiotic and cells are added to the wells of a 384 well microtiter plate and mixed. Cells are prepared as described above using the media selected for assay development supplemented with the antibiotic required to maintain the antisense construct and are diluted 1:100 in identical media immediately prior to addition to the microtiter plate wells. For a control, cells are also added to several wells that contain the solvent used to dissolve the antibiotics but no antibiotic. Cell growth is monitored continuously by incubation at 37° C. in a microtiter plate reader monitoring the OD600 of the wells over an 18-hour period. […] A plot of percent inhibition against log[antibiotic concentration] allows extrapolation of an IC50 value for each antibiotic.
The culture media selected for use in the assay is supplemented with inducer at concentrations shown to inhibit cell growth by 50% and 80% as described above and the antibiotic used to maintain the construct. Two fold dilution series of the panel of test antibiotics used above are generated in each of these media. Several antibiotics are tested side by side with three to four wells being used to evaluate the effects of an antibiotic on cell growth at each concentration, in each media. Equal volumes of test antibiotic and cells are added to the wells of a 384 well microtiter plate and mixed. Cells are prepared as described above using the media selected for use in the assay supplemented with the antibiotic required to maintain the antisense construct. […] Immediately prior to addition to the microtiter plate wells, the cultures are adjusted to an appropriate OD600 (typically 0.002) by dilution into warm (37° C.) sterile media supplemented with identical concentrations of the inducer and antibiotic used to maintain the antisense construct. For a control, cells are also added to several wells that contain solvent used to dissolve test antibiotics but which contain no antibiotic. Cell growth is monitored continuously by incubation at 37° C. in a microtiter plate reader monitoring the OD600 of the wells over an 18-hour period. […] A plot of percent inhibition against log[antibiotic concentration] allows extrapolation of an IC50 value for each antibiotic.
Antibiotics of various chemical classes and modes of action were purchased from Sigma Chemicals (St. Louis, Mo.). Stock solutions were prepared by dissolving each antibiotic in an appropriate aqueous solution based on information provided by the manufacturer. The final working solution of each antibiotic contained no more than 0.2% (w/v) of any organic solvent. To determine their potency against a bacterial strain engineered for expression of an antisense complementary to a proliferation-required gene encoding 50S ribosomal protein, each antibiotic was serially diluted two or three fold in growth medium supplemented with the appropriate antibiotic for maintenance of the anti-sense construct. At least ten dilutions were prepared for each antibiotic. 25 μL aliquots of each dilution were transferred to discrete wells of a 384-well microplate (the assay plate) using a multi-channel pipette. Quadruplicate wells were used for each dilution of an antibiotic under each treatment condition (plus and minus inducer). Each assay plate contained twenty wells for cell growth controls (growth media replacing antibiotic), ten wells for each treatment (plus and minus inducer, in this example IPTG).

[2] = tested on: E. coli transformed with IPTG-inducible antisense clones (AS-rplW, AS-rplLrplJ, AS-elaD, AS-visC, AS-yohH, AS-atpB/E); test: Cell-based assay: antibiotic sensitivity of E. coli antisense clones pretreated with IPTG (Example 9)
Description: The effectiveness of the above cell-based assay was validated using constructs expressing antisense RNA to the proliferation required E. coli genes rplL, rplJ, and rplW encoding ribosomal proteins L7/L12, L10 and L23 respectively. These proteins are part of the protein synthesis apparatus of the cell and as such are required for proliferation. These constructs were used to test the effect of antisense expression on cell sensitivity to antibiotics known to bind to the ribosome and thereby inhibit protein synthesis. Constructs expressing antisense RNA to several other genes (elaD, visC, yohH, and atpE/B), the products of which are not involved in protein synthesis were used for comparison.
First, pLEX5BA (Krause et al., J. Mol. Biol. 274: 365 (1997), the disclosure of which is incorporated herein by reference in its entirety) expression vectors containing antisense constructs to either rplW or to elaD were introduced into separate E. coli cell populations. Vector introduction is a technique well known to those of ordinary skill in the art. The expression vectors of this example contain IPTG inducible promoters that drive the expression of the antisense RNA in the presence of the inducer. However, those skilled in the art will appreciate that other inducible promoters may also be used. Suitable expression vectors are also well known in the art. The E. coli antisense clones to genes encoding ribosomal proteins L7/L12, L10 and L23 were used to test the effect of antisense expression on cell sensitivity to the antibiotics known to bind to these proteins. […]
The cell populations were exposed to a range of IPTG concentrations in liquid medium to obtain the growth inhibitory dose curve for each clone (FIG. 1). First, seed cultures were grown to a particular turbidity that is measured by the optical density (OD) of the growth solution. […] The cells were grown for up to 15 hours and the extent of growth was determined by measuring the optical density of the cultures at 600 nm. […]

E. coli = test: Inhibition of E. coli proliferation after IPTG induction of antisense clones (growth curves, dilution spotting, score); type: cell-based, Escherichia coli; settings: IPTG induction (1 mM)
Description: (§1) To study the effects of transcriptional induction in liquid medium, growth curves were carried out by back diluting cultures 1:200 into fresh media with or without 1 mM IPTG and measuring the OD450 every 30 minutes (min). To study the effects of transcriptional induction on solid medium, 10^2, 10^3, 10^4, 10^5, 10^6, 10^7 and 10^8 fold dilutions of overnight cultures were prepared. Aliquots of from 0.5 to 3 μl of these dilutions were spotted on selective agar plates with or without 1 mM IPTG. After overnight incubation, the plates were compared to assess the sensitivity of the clones to IPTG.
Of the numerous clones tested, some clones were identified as containing a sequence that inhibited E. coli growth after IPTG induction. […]
(§2) Molecule No. EcXA190, encoding a portion of the b3052 gene of Escherichia coli, was either transformed directly into Enterobacter cloacae, Salmonella typhimurium and/or Klebsiella pneumoniae or subcloned into an expression vector functional in these species and the subclones transformed into these organisms. […] After growth in liquid culture, cells were plated at various serial dilutions and a score determined by calculating the log difference in growth for INDUCED vs. UNINDUCED antisense RNA expression as determined by the maximum 10 fold dilution at which a colony was observed. […]

Enterobacter cloacae = test: Growth inhibition by induced E. coli antisense RNA in Enterobacter cloacae; type: cell-based; parameters: key: +: a positive in Table V below means that at least 10 fold more cells were required to observe a colony on the induced plate than on the non-induced plate; −: If there was no effect of antisense RNA expression in a microorganism, the clone is minus in Table V below; settings: antisense RNA expression induced with IPTG, serial dilution plating
Description: as §1
as §2, with “organisms. Suitable expression vectors are well known in the art.” for “organisms.”

Salmonella typhimurium = test: Growth inhibition by induced E. coli antisense RNA in Salmonella typhimurium; type: cell-based; parameters: key: +: a positive in Table V below means that at least 10 fold more cells were required to observe a colony on the induced plate than on the non-induced plate; −: If there was no effect of antisense RNA expression in a microorganism, the clone is minus in Table V below; settings: antisense RNA expression induced with IPTG, serial dilution plating
Description: as §1
as §2, with “organisms. Suitable expression vectors are well known in the art.” for “organisms.”

Klebsiella pneumoniae = test: Growth inhibition by induced E. coli antisense RNA in Klebsiella pneumoniae; type: cell-based; parameters: key: +: a positive in Table V below means that at least 10 fold more cells were required to observe a colony on the induced plate than on the non-induced plate; −: If there was no effect of antisense RNA expression in a microorganism, the clone is minus in Table V below; settings: antisense RNA expression induced with IPTG, serial dilution plating
Outline: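 An E. coli antisense fragment (b3052 portion), or other E. coli-inhibitory antisense clones, was expressed in each species on IPTG induction (1 mM). Serial 10-fold dilutions were spotted on selective agar with or without IPTG overnight. The score is the log difference in maximal colony-forming dilution, induced vs uninduced (0 = no effect; positive = at least 10-fold).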

Molecule	IC50 ([1]; read-out: IC50 (+IPTG))	IC50 ([1]; read-out: IC50 (−IPTG))	Fold Increase in Sensitivity [1]	Sensitivity Increased? [1]	effect of antisense expression on E. coli growth/proliferation (E. coli)	other results
CC[C@H]1OC(=O)[C@H](C)[C@@H](O[C@H]2C[C@@](C)(OC)[C@@H](O)[C@H](C)O2)[C@H](C)[C@@H](O[C@@H]2O[C@H](C)C[C@H](N(C)C)[C@H]2O)[C@](C)(O)C[C@@H](C)C(=O)[C@H](C)[C@@H](O)[C@]1(C)O [Erythromycin]	0.187 µg/mL (≈ 0.255 µM)	7.47 µg/mL (≈ 10.2 µM)	40	Yes		sensitivity to antibiotic ([2]; initial experiments, clones with antisense to non-protein synthesis genes elaD, atpB/E and visC): do not; sensitivity to antibiotic ([2]; initial experiments, clones with antisense to protein synthesis genes (L7/L12 & L10, L7/L12 alone, L22, L18, rRNA, Elongation Factor G)): increased sensitivity
CCn1cc(C(=O)O)c(=O)c2ccc(C)nc21 [Nalidixic acid]	6.03 µg/mL (≈ 25.9 µM)	6.97 µg/mL (≈ 30 µM)	1	No		sensitivity to antibiotic ([2]; cells/clone expressing antisense to rplL and rplJ (L7/L12, L10), IPTG induced): does not show increased sensitivity
B1					reduction in cell growth	
B2						Sensitivity of E. cloacae to antisense nucleic acid (growth inhibition, induced vs. uninduced) (Enterobacter cloacae): −; Sensitivity of S. typhimurium to antisense nucleic acid (growth inhibition, induced vs. uninduced) (Salmonella typhimurium): −; Sensitivity of K. pneumoniae to antisense nucleic acid (growth inhibition, induced vs. uninduced) (Klebsiella pneumoniae): −
B3					reduction in cell growth	
